Experimental data reported in paper PMC4049535 (Nature communications, 2013).

How the values were obtained:
Antigen 85C (Ag85C) [1] = molecular target: T1, Antigen 85C (Ag85C) (Mycobacterium tuberculosis, UniProt P9WQN9); experiment: peptide mass fingerprinting of tryptic peptides; format: biochemical
Antigen 85C (Ag85C) [2] = molecular target: T1, Antigen 85C (Ag85C); experiment: resorufin butyrate fluorometric assay dose-dependence; format: biochemical

T1 sequence (P9WQN9 46-340): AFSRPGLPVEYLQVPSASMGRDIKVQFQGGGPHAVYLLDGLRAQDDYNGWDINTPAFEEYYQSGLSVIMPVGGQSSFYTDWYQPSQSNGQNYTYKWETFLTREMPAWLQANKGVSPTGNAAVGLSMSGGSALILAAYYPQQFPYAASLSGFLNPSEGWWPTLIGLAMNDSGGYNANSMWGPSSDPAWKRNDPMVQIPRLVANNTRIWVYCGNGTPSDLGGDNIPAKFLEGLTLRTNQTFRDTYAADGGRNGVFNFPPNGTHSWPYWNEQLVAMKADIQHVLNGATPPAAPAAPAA

Row | SMILES | peptide mass fingerprinting of tryptic peptides (MALDI-MS); activity loss in res (Antigen 85C (Ag85C) [1]) [mM] | Ki (Antigen 85C (Ag85C) [2]) [µM]
1 | NC(=O)CI [IAA, iodoacetamide] | 51.2 | 
2 | O=c1c2ccccc2[se]n1-c1ccccc1 [EBS, ebselen] |  | 0.063
